Experimental data reported in publication PMC4109950, “Novel Small Molecule XPO1/CRM1 Inhibitors Induce Nuclear Accumulation of TP53, Phosphorylated MAPK and Apoptosis in Human Melanoma Cells” (PLoS ONE, 2014).
pIC50: −log10 of the molar value.

Experiments:
[1] = test system: CHL-1; test: Cellular growth assay (MTS), 72 h; type: cell-based, human
Protocol: (§1) Cells were seeded in 96-well plates (2×10^4) in triplicate and allowed to adhere overnight. Fresh media containing KPT-185, KPT-185-trans, KPT-276, or KPT-330 was added to each well at various concentrations (range = 40–10240 nM) and cells were incubated at 37°C/5% CO2 for 72 hours. Cells treated with DMSO (diluent) and untreated cells served as controls. At this time, the percentage of cell growth was evaluated using the MTS assay (CellTiter 96 AQueous Non-Radioactive Cell Proliferation Assay, Promega) and quantified by determining the optical density at 595 nm using a Bio-Rad iMark™ microplate reader. The 4-parameter logistic or Hill model was the assumed dose-response relationship for the in vitro inhibition and cell viability experiments. Nonlinear least squares regression was used to estimate the model parameters and generate 95% confidence intervals for the IC50 estimates. For in vivo experiments, tumor volumes were first log-transformed to meet test assumptions of normality and homoscedasticity. Changes in tumor volumes were analyzed using a two-sample t-test to evaluate the difference from first day of treatment to the last for A375 xenografts (day 17), and from day 1 to day 10 for CHL-1 xenografts as day 10 marks the first mouse sacrificed when 1500 mm^3 tumor volume was reached. ANOVA was used to compare the expression of XPO1 staining among samples from the melanoma tissue core array. The Wilcoxon rank-sum test was used to analyze data comparing growth inhibition and apoptosis of the five metastatic melanoma cell lines to the three melanocyte cell lines.

[2] = test system: A375; test: Cellular growth assay (MTS), 72 h; type: cell-based, human; conditions: Homo sapiens, A-375, 72 h, A375, 72 hr treatment, read-out: Growth Inhibition IC50
Protocol: as §1

[3] = test system: human A375 melanoma xenografts; test: Subcutaneous melanoma xenograft tumor growth; type: in vivo, NOD/SCID mice; conditions: oral gavage three times weekly, KPT-276 75 mg/kg or KPT-330 15 mg/kg, p<0.0001 for both
Protocol: (§2) All animal studies were conducted under a protocol (2009A0178-R1) approved by The Ohio State University Institutional Animal Care and Use Committee (IACUC). A subcutaneous (s.c.) tumor model of melanoma was employed to determine whether treatment with the orally bioavailable SINE compounds, KPT-276 (preclinical tool compound) or KPT-330 (currently in Phase 1 studies in humans with advanced cancers), would be effective in decreasing tumor growth in vivo. Female NOD/SCID mice (n = 6 mice/group; 6-8 weeks of age; Jackson Laboratory, Bar Harbor, ME) were injected subcutaneously (s.c.) in the right flank with 2×10^6 human A375 or CHL-1 melanoma cells (Day 0). Once tumors were palpable, mice were randomized to one of […] treatment groups: [a] diluent, [b] KPT-276 (75 mg/kg), or [c] KPT-330 (15 mg/kg). All treatments were administered via oral gavage in a volume of 200 µL three times weekly (Monday, Wednesday, Friday). Bi-dimensional tumor measurements were obtained three times weekly using microcalipers. Mice were euthanized and tumors were collected from all animals once diluent-treated tumors reached a volume of 1500 mm^3. For histology studies, a subset of animals (n = 2–3/group) were treated with diluents, KPT-276, or KPT-330 for one week, after which tumors were collected to avoid necrosis. The weights of all animals receiving diluent, KPT-276 or KPT-330 were monitored for dosing and to assess toxicity throughout the study.
(§3) The 4-parameter logistic or Hill model was the assumed dose-response relationship for the in vitro inhibition and cell viability experiments. Nonlinear least squares regression was used to estimate the model parameters and generate 95% confidence intervals for the IC50 estimates. For in vivo experiments, tumor volumes were first log-transformed to meet test assumptions of normality and homoscedasticity. Changes in tumor volumes were analyzed using a two-sample t-test to evaluate the difference from first day of treatment to the last for A375 xenografts (day 17), and from day 1 to day 10 for CHL-1 xenografts as day 10 marks the first mouse sacrificed when 1500 mm^3 tumor volume was reached. ANOVA was used to compare the expression of XPO1 staining among samples from the melanoma tissue core array. The Wilcoxon rank-sum test was used to analyze data comparing growth inhibition and apoptosis of the five metastatic melanoma cell lines to the three melanocyte cell lines.

[4] = test system: human CHL-1 melanoma xenografts; test: Subcutaneous melanoma xenograft tumor growth; type: in vivo, NOD/SCID mice; conditions: CHL-1 xenograft, oral gavage three times weekly, KPT-276 75 mg/kg (p = 0.0087) or KPT-330 15 mg/kg (p = 0.0002)
Protocol: as §2, §3

[5] = test system: CHL-1; test: Apoptosis via Annexin V/PI staining, flow cytometry; type: cell-based; conditions: Homo sapiens, CHL-1, 72 hr treatment
Protocol: as §3, with “Phosphatidyl serine exposure was assessed in tumor cells and melanocytes by flow cytometry using APC-Annexin V and propidium iodide (PI; BD Pharmingen, San Diego, CA) as previously described. Each analysis was performed utilizing at least 10,000 events. We considered the Annexin V positive cells (early apoptosis) and Annexin V/PI double positive cells (late apoptosis) cells as the apoptotic cell population. The 4-parameter” for “The 4-parameter”

[6] = test system: A375; test: as above; type: cell-based; conditions: Homo sapiens, A-375, A375, 72 hr treatment
Protocol: as §3, with “Phosphatidyl serine exposure was assessed in tumor cells and melanocytes by flow cytometry using APC-Annexin V and propidium iodide (PI; BD Pharmingen, San Diego, CA) as previously described. Each analysis was performed utilizing at least 10,000 events. We considered the Annexin V positive cells (early apoptosis) and Annexin V/PI double positive cells (late apoptosis) cells as the apoptotic cell population. The 4-parameter” for “The 4-parameter”

[7] = Body weight of tumor-bearing mice during oral treatment; type: in vivo, NOD/SCID mice; conditions: oral treatment three times weekly, KPT-276 75 mg/kg or KPT-330 15 mg/kg, n = 6
Protocol: as §2, with “For histology studies, a subset of animals (n = 2–3/group) were treated with diluents, KPT-276, or KPT-330 for one week, after which tumors were collected to avoid necrosis.” left out

[8] = design: method as in personal communication, Karyopharm Therapeutics, Inc.; conditions: CD1 mice, oral, 10 mg/kg; ref personal communication, Karyopharm Therapeutics, Inc.; cited from earlier work
[9] = test system: A375 xenografts; test: Immunohistochemical staining of xenografts; type: in vivo, NOD/SCID mice; conditions: treated one week
Protocol: as §2
(§4) For analysis of XPO1 expression in human samples, an unstained (5 µm) slide of a commercially available tissue microarray (1 mm cores) containing 56 cases of primary melanoma, 20 cases of metastatic melanoma, and 24 cases diagnosed as nevus (US Biomax, Inc., Catalog #ME1004a) was subjected to immunohistochemical analysis using an antibody targeting XPO1 (Santa Cruz H-300, sc-5595, lot # D0110) according to manufacturer's recommendations (1∶50). For mouse studies, tumor xenografts were fixed in formalin, embedded in paraffin, a sectioned at 4 µm with two sections per slide. […] All samples were analyzed in a blinded fashion by an experienced pathologist (Dr. Krista La Perle). Automatic quantification of immunoreactivity in viable portions of xenograft tissue samples and tissue cores segmented with the TMA Lab (Aperio Technologies, Vista, CA) was performed on whole slide images scanned at 40× magnification (ScanScope XT, Aperio Technologies) using the Positive Pixel Count Algorithm in the ImageScope software, as well as the Color Deconvolution and Cytoplasmic algorithms available in the Image Analysis Toolbox (Aperio Technologies).

[10] = test system: CHL-1 xenografts; test: Immunohistochemical staining of xenografts; type: in vivo, NOD/SCID mice; conditions: treated one week
Protocol: as §2, §4

[11] = test system: A375 and CHL-1 cell lines; test: Immunoblot of TP53, CDKN1A after etoposide; type: cell-based, human; conditions: 20 µM etoposide, 24 hours
Protocol: Human melanoma cell lines were seeded in 6-well plates (2×10^5) and allowed to adhere overnight. After treatment for various time points, the cells were harvested then fractionated using NE-PER Nuclear and Cytoplasmic Extraction Reagents from Thermo Scientific following the manufacturer's protocol. Nuclear and cytoplasmic fractions were validated via immunoblot analysis using Lamin B and GAPDH antibodies.
Immunoblots were prepared as previously described and probed with antibodies specific for TP53, CDKN1A (p21), XPO1, HDM2 (MDM2), Lamin B (Santa Cruz Biotechnology, Santa Cruz, CA), pMAPK, PARP (Cell Signaling Technology), GAPDH or β-actin (Sigma). Following incubation with the appropriate horseradish peroxidase-conjugated secondary antibody, immune complexes were detected using the ECL Plus detection kit (Amersham Biosciences, Ayesbury, UK).
Supplementary file pone.0102983.s001.tif: Figure S1 Localization of TP53, CDKN1A, and pMAPK in melanoma cell lines with etoposide. A375 and CHL-1 cell lines were treated with 20 µM of etoposide and harvested after 24 hours of treatment. Lysates were evaluated via immunoblot analysis. Lamin B and GAPDH serve as loading controls for nuclear and cytoplasmic compartments respectively. The data shown are representative of 2 to 3 independent biological experiments. (TIF) Click here for additional data file.

Structure (SMILES) | IC57 value (cytostatic effect) ([1]; CHL-1, 72 hours) [µM] | pIC50 [2] | Tumor growth vs diluent [3] | Tumor growth vs diluent [4] | pIC50 [5] | pIC50 [6] | Body weights of mice during treatment [7] | Bioavailability [8] [%] | Level at Tmax [8] | Tmax [8] [min] | Ki67 staining [9] | Levels of nuclear TP53 and pMAPK (IHC) ([9]; n = 3 vs 2) | Ki67 staining [10] | TP53 expression (IHC) ([10]; high basal expression) | pIC50 ([1]; Homo sapiens, CHL-1, 72 hr treatment, read-out: Growth Inhibition IC50) | TP53 upregulation and downstream activation of CDKN1A [11]
O=C(/C=C\n1cnc(-c2cc(C(F)(F)F)cc(C(F)(F)F)c2)n1)N1CC(F)(F)C1 [KPT-276] | 3.8794 | 6.49 | significantly inhibited growth | significantly inhibited growth | 5.21 | 6.63 | remained constant | > 90 | roughly 2.5 micromolar | 60 | No significant changes | trend towards increased levels | No significant changes | did not change |  | 
O=C(/C=C\n1cnc(-c2cc(C(F)(F)F)cc(C(F)(F)F)c2)n1)NNc1cnccn1 [KPT-330] |  | 6.92 | significantly inhibited | significantly inhibited | 5.11 | 6.95 | remained constant | ~60 | roughly 2.5 micromolar | 30 |  |  |  |  | 5.12 | 
COc1cc([C@@H]2c3cc4c(cc3[C@@H](O[C@@H]3O[C@@H]5CO[C@@H](C)O[C@H]5[C@H](O)[C@H]3O)[C@H]3COC(=O)[C@H]23)OCO4)cc(OC)c1O [etoposide, Etoposide] |  |  |  |  |  |  |  |  |  |  |  |  |  |  |  | induced TP53 upregulation
